≈ marks a conversion by molar mass, not a printed value. Where two headings read alike, the source gives them in different places. Marks after values point to notes of the source that are not given here. Bridge positions count the residues as written; N and C are the ends. Square brackets hold non-standard residues; d marks the D form. Ends that are not written are not given here. Peptide text beside a SMILES is read from it. βAla = NCCC(=O)O

Data set [1] relates to Staphylococcus aureus, epidemic methicillin-resistant EMRSA-15. Format: cell-based. The method, then:
(§1) The following strains were used in this study: Escherichia coli, ATCC 25922, Staphylococcus aureus, epidemic methicillin-resistant EMRSA-15, Klebsiella pneumoniae, clinical isolate from St George’s, University of London (SGUL, London, UK), Acinetobacter baumannii, clinical isolate from SGUL, Pseudomonas aeruginosa, PA01 wildtype strain, and Enterococcus faecalis, vancomycin-resistant ATCC 51299.
(§2) The minimal inhibitory concentration (MIC) was determined in a microdilution assay using Mueller–Hinton (MH) or Brain Heart Infusion Broth (BHI) broth following a previously published protocol. Briefly, a twofold serial dilution of the antibiotics and peptides were prepared and added to a bacteria solution, resulting in 2–5 10^5 CFU/mL. The microtiter plates (polypropylene, Corning, Corning, NY, USA) were incubated for 18 h at 37 °C and MICs were taken visually. Based on our experience with proline rich peptides, their low activity in Mueller–Hinton broth, and their strong activity in diluted broth, we decided to also measure the activity of the peptide set in a 1/5 dilution of the broth. MICs in the presence of serum were established using human serum (Zen-Bio, Durham, NC, USA) and heat-inactivated serum (Sigma-Aldrich, St. Louis, MO, USA). A total of 20% (v/v) of each human serum was mixed with bacterial solution and added to predetermined concentrations of antibiotics and peptides, resulting in a final 10% (v/v) concentration of serum and 2–5 × 10^5 bacteria.

For data set [2], the system named is Acinetobacter baumannii, clinical isolate from SGUL. Format: cell-based. The settings on record: triplicate, modal value. How it is done: as §1, §2
The test system of data set [3] is Enterococcus faecalis, vancomycin-resistant ATCC 51299. Format: cell-based. The method, then:
as §1, §2

Data set [4] has as its system Escherichia coli, ATCC 25922. In kind it is cell-based. The settings on record: triplicate, modal value. The method, then: as §1, §2
Data set [5] relates to Klebsiella pneumoniae, clinical isolate from St George's, University of London. In kind it is cell-based. How it is done:
as §1, §2

For data set [6], the system named is Pseudomonas aeruginosa, PA01 wildtype strain. In kind it is cell-based. Conditions: triplicate, modal value. The method, then:
as §1, §2

The nature of a further data set: Serum stability assay. In kind it is in vitro ADME, human. The settings on record: 37 °C, UPLC-MS; for half-life at 100 μM: 100% human serum (Sigma-Aldrich, human male AB plasma), 100 μM peptide, 0-24 h, TFA precipitation, triplicates; for Peptide state after one hour in human serum: 100% human serum, 100 μM, 1 h. The method, then: (§3) Serum stability assays were performed in 100% human serum (Sigma-Aldrich, St. Louis MO, USA, human male AB plasma). Serum was centrifuged to remove lipids and incubated with the peptides at 100 μM for 0, 0.5, 1, 3, 6, and 24 h at 37 °C. Serum proteins were precipitated by adding 3 μL of TFA to 40 μL of peptide – serum sample (final TFA 7%). The remaining supernatant was diluted with 50:50 solvent A/B. The amount of peptide remaining (%) was quantified by UPLC-MS analysis. For pH stability experiments, peptides were incubated at a concentration of 20 μM at pH 1.2 and 7.5 for 24 h, and stability was monitored by UPLC analysis.

Another data set can be described thus: pH stability. Format: physicochemical. The settings on record: 20 μM, pH 1.2 and 7.5, 24 h, UPLC. How it is done:
as §3

The next data set relates to E. coli. The settings on record: cited from earlier work. From the text:
(§4) Several naturally occurring cyclotide sequences have been proposed to have antimicrobial activity. However, the cyclotides tested in that study were synthetically made and had rather weak activity against a range of common pathogenic bacteria, including Escherichia coli and Staphylococcus aureus, but were only active in low salt media, losing all activity under physiological conditions. A number of other studies have also reported antibacterial activity for some natural cyclotides or synthetic derivatives of them. For example, fractions comprised of cyclotid ...

The test system of data set [7] is S. enterica serovar Typhimurium LT2. The settings on record: cited from earlier work.
Description: as §4

The subject of another data set is Staphylococcus aureus. Conditions: cited from earlier work.
Description: as §4

The mark [8] stands for this setting: MH, single measurement (asterisk).
[9] abbreviates: 1/5 MH + 10% human serum, triplicate, modal value.
[10] abbreviates: 1/5 MH, triplicate, modal value.
[11] abbreviates: 1/5 MH + 10% heat inactivated human serum, triplicate, modal value.
[12] abbreviates: MH + 10% human serum, triplicate, modal value.

A word on the MIC: it is the lowest concentration found to suppress growth. Take `CC[C@H](C)[C@H](NC(=O)CN)C(=O)NCC(=O)N[C@@H](C)C(=O)N[C@H](C(=O)N[C@@H](CC(C)C)C(=O)N[C@@H](CCCCN)C(=O)N[C@H](C(=O)N[C@@H](CC(C)C)C(=O)N[C@H](C(=O)N[C@H](C(=O)NCC(=O)N[C@@H](CC(C)C)C(=O)N1CCC[C@H]1C(=O)N[C@@H](C)C(=O)N[C@@H](CC(C)C)C(=O)N[C@H](C(=O)N[C@@H](CO)C(=O)N[C@@H](Cc1c[nH]c2ccccc12)C(=O)N[C@H](C(=O)N[C@@H](CCCCN)C(=O)N[C@@H](CCCNC(=N)N)C(=O)N[C@@H](CCCCN)C(=O)N[C@@H](CCCNC(=N)N)C(=O)N[C@@H](CCC(N)=O)C(=O)N[C@@H](CCC(N)=O)C(N)=O)[C@@H](C)CC)[C@@H](C)CC)[C@@H](C)O)[C@@H](C)O)C(C)C)C(C)C` [Melittin, reference compound]: the MIC in data set [1] (1/5 MH + 10% heat inactivated human serum, single measurement (asterisk)) is 1.4 µM; in data set [1] (1/5 MH + 10% human serum, single measurement (asterisk)), 1.4 µM; in data set [1] (1/5 MH, single measurement (asterisk)) it was 0.7 µM (≈ 1.99 µg/mL); in data set [1] (setting [8]) it was 4 µM (≈ 11.4 µg/mL).
What is called half-life is the time needed for the level to fall by half in the phase considered. Lower therefore signals fast loss. With `CC[C@H](C)[C@@H]1NC(=O)[C@H](Cc2c[nH]c3ccccc23)NC(=O)[C@H](CCCNC(=N)N)NC(=O)[C@H](C(C)C)NC(=O)[C@H](CCCNC(=N)N)NC(=O)[C@H](CCCNC(=N)N)NC(=O)[C@H](CCCCN)NC(=O)CCNC(=O)CCNC(=O)[C@@H](N)CSSC[C@@H](C(=O)O)NC(=O)CCNC(=O)CCNC(=O)[C@H](Cc2c[nH]c3ccccc23)NC(=O)[C@H]([C@@H](C)CC)NC1=O` [c-optP7] (H-C[βAla][βAla]KRRVRWIIW[βAla][βAla]C-OH; disulfide 1-15), the MIC in data set [2] (1/5 MH + 10% human serum) is reported as 71 µM; in [2] (1/5 MH) it was 4 µM (≈ 7.2 µg/mL); in data set [3] (1/5 BHI + 10% human serum, triplicate, modal value), more than 142 µM; in data set [3] (1/5 BHI, triplicate, modal value), 18 µM (≈ 32.4 µg/mL); in data set [3] (BHI, single measurement (asterisk)) it was >142 * µM; in data set [4] (1/5 MH + 10% heat inactivated human serum), 35 µM. For the same molecule, the MIC in [4] (1/5 MH + 10% human serum) is 18 µM; in data set [4] (1/5 MH), 4 to 9 µM; in data set [4] (MH + 10% human serum), more than 142 µM; in data set [4] (MH), 71 µM (≈ 128 µg/mL); in data set [5] (setting [9]), 142 µM; in data set [5] (setting [10]) it was 71 µM (≈ 128 µg/mL). Further, the MIC in data set [5] (setting [8]) is recorded as >142 * µM; in data set [6] (1/5 MH + 10% human serum) it was 35 µM; in data set [6] (1/5 MH), 9 µM (≈ 16.2 µg/mL); in data set [6] (MH + 10% human serum), more than 142 µM; in data set [6] (MH, microdilution, 18 h 37 °C, visual), 142 µM (≈ 256 µg/mL); in data set [1] (setting [11]) it was more than 142 µM. Further, the MIC in [1] (setting [9]) is reported as more than 142 µM; in [1] (setting [10]), 18 µM (≈ 32.4 µg/mL); in [1] (setting [12]) it was more than 142 µM; in data set [1] (MH, triplicate, modal value), 142 µM (≈ 256 µg/mL). Also, the half-life at 100 μM in “Serum stability assay” was 9 min. Besides, the “Peptide state after one hour in human serum” value in “Serum stability assay” was “fully degraded”. Further, the pH stability result in “pH stability” was “exceptional stability over 24 h”.
Regarding cycloviolacin O2, the MIC in the data set on E. coli was 2 µM; in [7] it was approximately 9 µM; in the data set with Staphylococcus aureus it was more than 50 µM.
Turning to KRRVRWIIW-NH2 [optP7], the MIC in [3] (ATCC 51299, 18 h) is reported as 0.8 µM; in [5] (clinical isolate from St George's, University of London, 18 h), 1.5 µM; in [1] (setting [11]), 6 µM; in data set [1] (setting [9]), 6 µM; in [1] (setting [10]), 1.5 µM; in data set [1] (setting [12]), 49 µM. This molecule also returned an MIC in [1] (MH, triplicate, modal value) of 6 µM. Also, the half-life at 100 μM in the data set “Serum stability assay” is 13 min. Further, in “Serum stability assay”, the “Peptide state after one hour in human serum” value was “fully degraded”. Moreover, the pH stability result in the data set “pH stability” is recorded as “exceptional stability over 24 h”.
